Results as given in patent US20230192617A1, “AZABICYCLIC(THIO)AMIDES AS FUNGICIDAL COMPOUNDS” (Bayer CropScience Aktiengesellschaft, priority 2020, published 2023).

Assays:
[1] = test system: Alternaria brassicae; assay: In vivo preventive test on Alternaria brassicae (leaf spot on radish or cabbage); conditions: 500 ppm of active ingredient, preventive spray on radish or cabbage, evaluated 3 to 4 days after inoculation, read-out: efficacy
Method in brief: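 Young radish or cabbage plants were sprayed with compound dissolved in DMSO/acetone/Tween 80 and diluted in water; controls received solvent only. Inoculation by spraying A. brassicae spore suspension 24 h later, then 3–4 days at 20 °C and 100% relative humidity.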

[2] = test system: Alternaria alternata; assay: Alternaria alternata in vitro cell test; format: cell-based; conditions: 120 h, 20 ppm of active ingredient, liquid culture, 5 days incubation, spectrometric measurement of mycelium growth, read-out: efficacy (inhibition of fungal growth)
Method in brief: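 Liquid culture assay in which A. alternata spores in medium received DMSO-solubilized compound (final DMSO ≤1%). After 5 days, mycelium growth was measured spectrometrically. Inhibition was calculated against fungicide-free control wells.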

[3] = Measurement of Log P values by HPLC on reversed phase columns (EEC directive 79/831 Annex V.A8); format: physicochemical; conditions: reversed phase HPLC column, method [a]: LC-UV, acidic range, 0.1% formic acid in water and acetonitrile as eluent
Method in brief: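 Reversed-phase HPLC with UV detection per EEC 79/831 Annex V.A8, linear 10–95% acetonitrile gradient. Aqueous eluent: 0.1% formic acid (acidic), 0.001 M ammonium acetate (neutral), or 0.1% phosphoric acid (acidic); multiple values in one method joined by "+".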

[4] = test system: Botrytis cinerea; assay: B-11. Botrytis cinerea in vitro cell test; format: cell-based; conditions: 144 h, 20 ppm of active ingredient, 6 days incubation, liquid culture, absorbance, read-out: efficacy (inhibition of fungal growth)
Method in brief: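 B. cinerea spores were grown in liquid culture with compound (DMSO ≤1% final). Mycelium growth was measured spectrometrically after 6 days, with inhibition taken as absorbance relative to untreated control wells.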

[5] = test system: Colletotrichum lindemuthianum; assay: B-8. Colletotrichum lindemuthianum in vitro cell test; format: cell-based; conditions: 144 h, 20 ppm of active ingredient, 6 days incubation, liquid culture, absorbance, read-out: efficacy (inhibition of fungal growth)
Method in brief: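 Spore suspension of C. lindemuthianum in liquid medium exposed to DMSO-solubilized compounds (final DMSO ≤1%) for 6 days. Mycelial growth read by absorbance, with inhibition calculated relative to compound-free control wells.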

[6] = test system: Sphaerotheca fuliginea; assay: In vivo preventive test on Sphaerotheca fuliginea (powdery mildew on cucurbits); conditions: Podosphaera fuliginea, 192 h; 500 ppm of active ingredient; preventive spray on gherkin; evaluated 8 days after inoculation; read-out: efficacy
Protocol: B-4. in vivo preventive test on Sphaerotheca fuliginea (powdery mildew on cucurbits) [table] The active ingredients were made soluble and homogenized in a mixture of Dimethyl sulfoxide/Acetone/Tween® 80 and then diluted in water to the desired concentration. The young plants of gherkin were treated by spraying the active ingredient prepared as described above. Control plants were treated only with an aqueous solution of Acetone/Dimethyl sulfoxide/Tween® 80. After 24 hours, the plants were contaminated by spraying the leaves with an aqueous suspension of Sphaerotheca fuliginea spores. The contaminated gherkin plants were incubated for 8 days at 20° C. and at 70-80% relative humidity.

[7] = test system: Botrytis cinerea; assay: In vivo preventive test on Botrytis cinerea (grey mould); conditions: 500 ppm of active ingredient, preventive spray on gherkin or cabbage, evaluated 4 to 5 days after inoculation, read-out: efficacy
Method in brief: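 Young gherkin or cabbage plants were sprayed with compound in DMSO/acetone/Tween 80 diluted in water, then inoculated 24 hours later with a B. cinerea spore suspension. Incubation lasted 4 to 5 days: gherkin at 17° C., 90% relative humidity; cabbage at 20° C., 100% relative humidity.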

[8] = test system: Pyrenophora teres; assay: B-10. Pyrenophora teres in vitro cell test; format: cell-based; conditions: 144 h, 20 ppm of active ingredient, 6 days incubation, liquid culture, absorbance, read-out: efficacy (inhibition of fungal growth)
Method in brief: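 Liquid-culture assay on a P. teres spore suspension with compounds added to the medium from DMSO solutions, final DMSO ≤1%. Mycelium growth read spectrometrically after 6 days. Inhibition calculated from absorbance against untreated control wells.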

[9] = test system: Colletotrichum lindemuthianum; assay: In vivo preventive test on Colletotrichum lindemuthianum (leaf spot on bean); conditions: 168 h, 500 ppm of active ingredient, preventive spray on bean, evaluated 7 days after inoculation, read-out: efficacy
Protocol: B-5. In Vivo Preventive Test on Colletotrichum lindemuthianum (Leaf Spot on Bean) [table] The active ingredients were made soluble and homogenized in a mixture of Dimethyl sulfoxide/Acetone/Tween® 80 and then diluted in water to the desired concentration. The young plants of bean were treated by spraying the active ingredient prepared as described above. Control plants were treated only with an aqueous solution of Acetone/Dimethyl sulfoxide/Tween® 80. After 24 hours, the plants were contaminated by spraying the leaves with an aqueous suspension of Colletotrichum lindemuthianum spores. The contaminated bean plants were incubated for 24 hours at 20° C. and at 100% relative humidity and then for 6 days at 20° C. and at 90% relative humidity.

| SMILES | pest or weed control at 500 ppm [1] [%] | inhibition at 20 ppm [2] [%] | chromatographic logP [3] | inhibition at 20 ppm [4] [%] | inhibition at 20 ppm [5] [%] | pest or weed control at 500 ppm [6] [%] | pest or weed control at 500 ppm [7] [%] | inhibition at 20 ppm [8] [%] | pest or weed control at 500 ppm [9] [%] |
| --- | --- | --- | --- | --- | --- | --- | --- | --- | --- |
| COc1cc([C@@H](F)CNC(=O)c2c(Oc3cccc(C(F)(F)F)c3)cnc3ccccc23)ccc1Cl (racemic) [I-058] | 90 to 100 | 90 to 100 | 4.05 | 90 to 100 | 90 to 100 | 90 to 100 | 90 to 100 |  |  |
| Cc1ccc(C(F)(F)CNC(=O)c2c(Oc3cccc(Br)c3F)cnc3ccccc23)c(C)c1 [I-225] | 70 to 79 | 90 to 100 | 4.43 | 90 to 100 | 90 to 100 | 90 to 100 | 90 to 100 | 90 to 100 |  |
| O=C(NC[C@@H](F)c1ccc(Cl)c(Cl)c1)c1c(Oc2cccc(C(F)(F)F)c2)cnc2ccccc12 (racemic) [I-059] |  | 90 to 100 | 4.47 | 90 to 100 |  | 70 to 79 | 90 to 100 |  |  |
| Cc1ccc(C(F)(F)CNC(=O)c2c(Oc3cccc(C(F)(F)F)c3)nnc3cc(F)ccc23)cc1C [I-175] | 90 to 100 | 90 to 100 | 4.62 | 90 to 100 | 90 to 100 |  |  | 90 to 100 | 80 to 89 |
| Cc1cc(C(F)F)ccc1[C@@H](F)CNC(=O)c1c(Oc2cccc(C(F)(F)F)c2)cnc2ccccc12 (racemic) [I-057] | 90 to 100 | 90 to 100 | 4.08 | 90 to 100 | 90 to 100 | 90 to 100 | 90 to 100 |  |  |
| O=C(NCC(F)(F)c1ccc(Cl)cc1)c1c(Oc2cccc(C(F)F)c2)nnc2ccccc12 [I-034] | 90 to 100 | 90 to 100 | 3.68 |  | 90 to 100 |  | 90 to 100 |  | 80 to 89 |
| O=C(NCC(F)(F)c1ccc(Br)cc1Cl)c1c(Oc2cncc(C(F)(F)F)c2)nnc2ccccc12 [I-027] | 90 to 100 | 90 to 100 | 4.08 |  | 90 to 100 | 90 to 100 | 90 to 100 |  |  |
| Cc1ccc2c(c1)CCC[C@@H]2NC(=O)c1c(Oc2cccc(C(F)(F)F)c2)nnc2ccccc12 (racemic) [I-078] | 90 to 100 | 90 to 100 | 4.47 | 90 to 100 | 90 to 100 | 90 to 100 | 90 to 100 | 90 to 100 |  |
| O=C(NC[C@H](F)c1ccc(C2CC2)cc1Cl)c1c(Oc2cccc(C(F)(F)F)c2)cnc2ccccc12 (racemic) [I-062] | 90 to 100 | 90 to 100 | 4.7 | 90 to 100 | 90 to 100 | 90 to 100 | 90 to 100 |  |  |
| Cc1cccc(Oc2nnc3ccccc3c2C(=O)N[C@@H](C)c2cccc(C(F)(F)F)c2)c1 (racemic) [I-020] | 90 to 100 | 80 to 89 | 3.79 |  | 70 to 79 | 70 to 79 | 90 to 100 |  |  |
| Cc1ccc(C(F)(F)CNC(=O)c2c(Oc3cccc(C(F)(F)F)c3)nnc3c2CCC3(C)C)c(C)c1 [I-232] | 80 to 89 |  | 4.85 | 90 to 100 | 70 to 79 | 90 to 100 | 90 to 100 | 90 to 100 |  |
| O=C(c1c(Oc2cccc(C(F)(F)F)c2)nnc2ccccc12)N(O)CCc1ccc(Cl)cc1 [I-167] | 90 to 100 |  | 3.84 | 90 to 100 | 80 to 89 |  | 70 to 79 | 90 to 100 | 80 to 89 |
| O=C(NCC(F)(F)c1ccc(C2=CCCC2)cc1Cl)c1c(Oc2cccc(C(F)(F)F)c2)nnc2ccccc12 [I-073] | 90 to 100 |  | 5.4 | 90 to 100 |  |  | 90 to 100 | 90 to 100 | 80 to 89 |
| Cc1ccc(CCNC(=O)c2c(Oc3cccc(C(F)(F)F)c3)nnc3ccc(F)cc23)c(C)c1 [I-006] | 90 to 100 | 90 to 100 | 4.46 | 90 to 100 | 90 to 100 | 90 to 100 | 90 to 100 |  |  |
| Cc1ccc(C(F)(F)CNC(=O)c2c(Oc3cccc(C(F)(F)F)c3)c(C)nc3ccccc23)c(C)c1 [I-185] | 70 to 79 | 80 to 89 | 4.59 |  |  | 90 to 100 |  | 90 to 100 |  |
| O=C(N[C@H]1CCOc2ccccc21)c1c(Oc2cccc(C(F)(F)F)c2)nnc2ccccc12 [I-172] | 90 to 100 | 90 to 100 | 3.65 | 90 to 100 | 90 to 100 | 80 to 89 |  | 90 to 100 |  |
| C#Cc1cccc(Oc2cnc3ccccc3c2C(=O)NCC(F)(F)c2ccc(C)cc2C)c1 [I-215] | 80 to 89 | 80 to 89 | 4.13 | 90 to 100 | 90 to 100 | 90 to 100 | 90 to 100 | 90 to 100 |  |
| Cc1cc(Br)ccc1[C@@H](F)CNC(=O)c1c(Oc2cccc(C(F)(F)F)c2)cnc2ccccc12 (racemic) [I-063] | 90 to 100 | 90 to 100 | 4.59 | 90 to 100 | 90 to 100 | 90 to 100 | 90 to 100 |  |  |
| Cc1ccc(CCNC(=O)c2c(Oc3cccc(C(F)(F)F)c3)nnc3ccc(C)cc23)c(C)c1 [I-003] | 90 to 100 | 90 to 100 | 4.47 |  | 90 to 100 | 90 to 100 | 90 to 100 |  |  |
| COc1cc([C@@H](F)CNC(=O)c2c(Oc3cccc(Cl)c3)nnc3ccccc23)ccc1Cl (racemic) [I-050] | 90 to 100 | 90 to 100 | 3.77 | 90 to 100 | 90 to 100 |  | 80 to 89 |  | 80 to 89 |
| O=C(NC[C@H](F)c1ccc(Br)cc1Cl)c1c(Oc2cccc(C(F)(F)F)c2)cnc2ccccc12 (racemic) [I-041] | 90 to 100 | 90 to 100 | 4.56 |  | 90 to 100 | 90 to 100 | 90 to 100 |  |  |
